The values that follow come from article PMC6226472, “Cardol triene inhibits dengue infectivity by targeting kl loops and preventing envelope fusion” (Scientific Reports, 2018).

One data set deals with DENV4 (c0036). Put plainly: Efficacy (EC50) in infected Vero cells. In kind it is cell-based. Conditions: Dengue virus.
The subject of a further data set is DENV1 (16007). Put plainly: Efficacy (EC50) in infected Vero cells. In kind it is cell-based. As to conditions: Dengue virus.
In another data set the test system is DENV3 (16562). Put plainly: Efficacy (EC50) in infected Vero cells. Conditions: Dengue virus. In kind it is cell-based.
A short description of data set [1]: Cytotoxic concentration (CC50). In kind it is cell-based. As to conditions: human. As to the method:
Next, the compound mixture were further purified and synthesized into saturated (C15:0), monoene (C15:1), diene (C15:2), and triene (C15:3) as described in materials and methods. Toxicities were analyzed and results were calculated to percent viability and CC50 were analyzed using non-linear regression curve (Table 1). […] Cardanol triene was insoluble in DMSO, therefore the compound was excluded from this study. It could be inferred that the polyunsaturated hydrocarbon may involve in stabilizing the cell membrane. […] Moreover, we further explored the CC50 of cardol triene in other cell lines to verify its protective effect. Three human-derived cell lines (THP-1, HEK-293, and HepG2) were used to co-incubate with cardol triene and cardol mixture (73% diene and 27% triene).
Cytotoxic concentrations (CC50) were also studied using Vero cells. Briefly, the 10^4 cells were seeded into each well of 96-well plates. After an overnight incubation, phenolic lipids were serially diluted in DMSO to the final concentrations as follows; 25, 50, 100, 200, 300, 400, and 500 µM. Each concentration was performed in quadruplicates. DMSO at 1% was used as a mock treatment referring to 100% cell viability. Cells were incubated for 48 h before cell viability was accessed using CellTiler 96® Aqueous One Solution Cell Proliferation Assay kit (Promega, Wisconsin, USA). Non-linear regression analysis was used to determine cytotoxic concentrations (CC50) of each experiment. Results were derived from three independent experiments and reported as means and standard error of the means (SEM).

Data set [2] relates to DENV2. Put plainly: Attachment inhibition study. It counts as cell-based, Dengue virus. As to the method: Since dengue envelope protein was the key factor to receptor-binding, endocytosis, and fusion, we asked the question whether the compound would mainly neutralize the virion, inhibit the receptor binding, or inhibit endosomal fusion. Cardol triene at 10 µM was then co-incubated with DENV2 before, during, and after infection to Vero cells (Fig. 6A). […] Therefore, the major target was most likely at a pH-dependent endosomal fusion. […] However, the major post-infection inhibition required further investigations.
Vero (5 × 10^4) cells were seeded into 24-well plates as previously described. DENV2 (M.O.I. of 1) was diluted in ice-cold MEM with 1% fetal bovine serum[42] and was allowed to adsorb on the cells for 1 h with continuous rocking. Cardol triene (10 µM) was prepared in DMSO and was mixed with DENV2 (M.O.I. of 1) before adsorption for 1 h (pre-attachment). Cardol triene (10 µM) was also mixed with DENV2 (M.O.I. of 1) and immediately applied to the cells (co-attachment). Last, cardol triene was added to the cells after 1 h DENV2 adsorption (post-attachment). The experiments were incubated for 2 days at 37 °C. Intracellular viral RNA was determined from cell lysate using RT-qPCR and infectious virion was determined using plaque titration of the supernatant. DMSO was added to the experiment as a no-inhibition control. Means and standard error of the means (SEM) of three independent experiments were noted.

Data set [3] deals with dengue virus serotype 1–4. Put plainly: Pan-dengue inhibition (EC50s over serotypes). It counts as cell-based. Conditions: DENV1, read-out: EC50s, pan-dengue inhibition.
In data set [4] the test system is BHK-21/DENV2 replicon cells. Put plainly: Replicon cell viability, MTS assay. In kind it is cell-based. As to conditions: 10 µM and 20 µM, 72 h. As to the method:
We analyzed the replication inhibition using BHK-21/DENV2 replicon cells stably expressed the non-structural proteins. Cardol triene at 10 µM and 20 µM were added to the replicon cells for 72 h and the replication inhibition was accessed by RT-qPCR of DENV2 NS1. Ribavirin, a known inhibitor of flaviviral replication, was used as a positive inhibition control. […] Replicon cell viability under cardol triene treatment was also analyzed using an MTS assay. […] Therefore, we concluded that cardol triene inhibited DENV RNA replicon replication, potentially in dose-dependent manner.
Figure 7 Replicon inhibition study. (A) DENV2/BHK-21 replicon (5 × 10^4 cells) were treated with cardol triene or ribavirin for 72 h. Percent inhibition was calculated from RT-qPCR of cell lysate. (B) Percent DENV2/BHK-21 replicon cell viability at 72 h under 10 and 20 µM cardol triene. Error bars represented standard error of means (SEM) from three independent experiments.
A general note: Replicon systems follow genome replication, usually without infectious particles.

For data set [5], the system named is DENV2. Put plainly: Fusion inhibition study in C6/36 cells. In kind it is cell-based, Dengue virus. As to conditions: 10 µM, C6/36, M.O.I. of 1, 48 h, MES. As to the method:
Fusion inhibition study[25]–[27] of DENV and ZIKV were used to confirm the findings. Briefly, cardol triene at 10 µM was added to DENV2 or ZIKV (Fig. 6C-D) infected C6/36 cells at the M.O.I. of 1 for 48 h before inducing acidic condition by MES. The 4G2 antibody was used as a positive control inhibiting both DENV2 and ZIKV fusion. […] Therefore, we concluded that one of the targets of cardol triene, and other CNSL-derived phenolic lipids, was the kl loops of DENV E protein, thus preventing the conformational change of DENV dimer to trimer that was required to initiate pH-dependent fusion.
C6/36 (2 × 10^5) cells were seeded into 24-well plates before infection with DENV2 and ZIKV (M.O.I. of 1) as described. Cardol triene at 10 µM were introduced to the DENV2 and ZIKV infected cells during and after infection. […] Cells were incubate at 28 °C for 2 days before addition of 0.5 M 2-(N-morpholino) ethanesulfonic acid (MES) (pH 5.0) (Sigma Aldrich, St Louis, USA). Moreover, cells from selected wells subsequently underwent DAPI staining. Cell-cell fusion was observed under brightfield and fluorescence using an Eclipse TS100 Inverted Routine Microscope (Nikon, New York, USA).

Structures are written as SMILES.

By CC50 is commonly meant the concentration at which the toxic effect on the cells reaches its halfway point. A lower CC50 goes with harm at low concentration. The term inhibition denotes the relative decrease from the control value, in per cent. As to `C=CC/C=C/C/C=C/CCCCCCCc1cc(O)cc(O)c1` [Cardol triene, 5-[8(Z), 11(Z), 14-pentadecatrienyl]resorcinol], the EC50 in the data set on DENV4 (c0036) was 8.21 ± 0.34 µM; with DENV1 (16007) it was 5.35 ± 1.16 µM; in the data set on DENV3 (16562), 8.98 ± 1.77 µM; in data set [3] it was 5.35 to 8.89 µM. In addition, the CC50 stood at 148 ± 3.78 µM in data set [1] (THP-1 cells), 92.8 ± 3.93 µM in data set [1] (HEK-293 cells) and 140 ± 8.44 µM in data set [1] (HepG2 cells). The “inhibition of intracellular RNA” value in the data set on DENV2 [2] (10 µM, post-infection, RT-qPCR) came to 87.00 ± 6.43%. In the data set with DENV2 [2] (10 µM, pre-incubation and co-infection), the “inhibition of infectious virions” value was “moderate inhibition”. In addition, the inhibition at 10 µM in the data set on DENV2 [2] (Dengue virus, DENV2, post-infection, plaque titration, read-out: inhibition of infectious virion) is 91.7 ± 4.53%. Also, in data set [4], the replicon cell viability result is “did not have effect on cell viability”. The “DENV2 pH-dependent cell fusion” value with DENV2 [5] is “exclusively inhibited dengue fusion”.
